The values below come from ChEMBL document CHEMBL1201862, “PubChem BioAssay data set” (2004).

Among the test systems are SK-OV-3; UO-31; MDA-MB-435; HCC 2998; HOP-62; UACC-62; U-251; MDA-MB-231; SR; HT-29; SF-295; CCRF-CEM; OVCAR-5; M14; RXF 393; OVCAR-3; SNB-19; K562; OVCAR-8; SK-MEL-28.
Common to all, as to assay: NCI anticancer screen, dose series, 48 h

Molecules are shown by their SMILES.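 Test compounds were applied to cells in 96-well plates for 48 hours at 5 doses. At the GI50, growth is halved.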 Activity calls are given as the source filed them. Rule as the data show it: active = GI50 up to about 1.1 µM and inactive = higher.

In the case of `CC(=O)N(CCc1ccccc1)C(C#N)c1ccccc1` (configuration not stated), the GI50 in the assay on SK-OV-3, in the assay with UO-31, in the assay on MDA-MB-435, in the assay on HCC 2998, in the assay with HOP-62 and with UACC-62 was > 100 µM (inactive) each time. Besides, the GI50 with U-251, in the assay on MDA-MB-231, with SR, in the assay with HT-29, in the assay with SF-295 and in the assay on CCRF-CEM was > 100 µM (inactive) in each case. Besides, the GI50 is > 100 µM (inactive) in the assay on OVCAR-5; > 100 µM (inactive) in the assay on M14; > 100 µM (inactive) in the assay on RXF 393; 70.1 µM (inactive) in the assay on OVCAR-3; > 100 µM (inactive) in the assay with SNB-19; > 100 µM (inactive) with K562. The GI50 in the assay with OVCAR-8 is > 100 µM (inactive).

Consider `O=C(O)/C=C/c1ccc(OS(=O)(=O)O)cc1`, for which the GI50 in the assay on SK-OV-3, in the assay on UO-31, in the assay with MDA-MB-435, in the assay on HCC 2998, in the assay on HOP-62 and in the assay on UACC-62 was > 100 µM (inactive) each time. Also, the GI50 in the assay on U-251, in the assay with MDA-MB-231, with SR, in the assay on SK-MEL-28, in the assay on HT-29 and with SF-295 was > 100 µM (inactive) each time. The GI50 in the assay on OVCAR-5 is > 100 µM (inactive); in the assay on M14, > 100 µM (inactive); in the assay on RXF 393 it was 1.49 µM (inactive); with OVCAR-3 it was > 100 µM (inactive); in the assay on SNB-19, > 100 µM (inactive); in the assay with K562 it was > 100 µM (inactive). The GI50 with OVCAR-8 is > 100 µM (inactive).

Regarding `Cc1cc(N(CCC#N)CCC#N)ccc1C(/N=N/c1ccc([N+](=O)[O-])cc1)=N\NC(=O)c1ccccc1`, the GI50 in the assay with SK-OV-3 was 49.5 µM (inactive); with UO-31 it was 34.4 µM (inactive); in the assay on MDA-MB-435, 7.82 µM (inactive); in the assay with HCC 2998, 40.5 µM (inactive); with HOP-62, 87.5 µM (inactive); in the assay with UACC-62, 31 µM (inactive). Also, the GI50 is 42.3 µM (inactive) in the assay on U-251; 58.7 µM (inactive) in the assay with MDA-MB-231; 14.2 µM (inactive) in the assay on SR; 24.5 µM (inactive) with HT-29; 19.5 µM (inactive) with SF-295; 41.4 µM (inactive) with CCRF-CEM. In addition, the GI50 is > 100 µM (inactive) in the assay on OVCAR-5; 86.9 µM (inactive) in the assay on M14; 52.2 µM (inactive) in the assay on RXF 393; 46.1 µM (inactive) with OVCAR-3; 40.6 µM (inactive) in the assay on SNB-19; 22.9 µM (inactive) in the assay with K562. The GI50 in the assay with OVCAR-8 was 56.5 µM (inactive).

As for `Cc1nc(Cl)c(Cl)c(Cl)n1`, the GI50 is 3.47 µM (inactive) in the assay with SK-OV-3; 0.531 µM (active) in the assay with MDA-MB-435; 1.42 µM (inactive) in the assay with HCC 2998; 0.451 µM (active) in the assay with HOP-62; 0.375 µM (active) in the assay on UACC-62; 2.04 µM (inactive) in the assay with U-251. In addition, the GI50 is 0.276 µM (active) in the assay on MDA-MB-231; < 0.01 µM (active) with SR; 0.311 µM (active) in the assay on SK-MEL-28; 0.104 µM (active) in the assay on HT-29; 1.86 µM (inactive) in the assay on SF-295; 0.0109 µM (active) in the assay on CCRF-CEM. For the same compound, the GI50 in the assay on OVCAR-5 is 1.32 µM (inactive); in the assay on M14, 0.119 µM (active); in the assay with RXF 393 it was 0.495 µM (active); in the assay with OVCAR-3, 0.146 µM (active); in the assay with SNB-19, 1.39 µM (inactive); in the assay with K562, < 0.0113 µM (active). Moreover, the GI50 in the assay on OVCAR-8 is 0.755 µM (active).

With `Nc1nc(Cl)cc(NCC2CC(O)(CO)C2)n1` (configuration not stated), the GI50 in the assay with SK-OV-3, in the assay on UO-31, with MDA-MB-435, in the assay on HCC 2998, in the assay with HOP-62 and with UACC-62 was > 100 µM (inactive) in each case. Besides, the GI50 was > 100 µM (inactive) in the assay on U-251; > 100 µM (inactive) in the assay with MDA-MB-231; > 10 µM (inactive) in the assay with SR; > 100 µM (inactive) in the assay with SK-MEL-28; > 100 µM (inactive) with HT-29; > 100 µM (inactive) with SF-295. For the same compound, the GI50 in the assay on CCRF-CEM, with OVCAR-5, in the assay on RXF 393, with OVCAR-3, with K562 and in the assay on OVCAR-8 was > 100 µM (inactive) each time.

`Cn1c(=O)c2nc(SCc3ccccn3)[nH]c2n(C)c1=S`: the GI50 in the assay on SK-OV-3 is 27.7 µM (inactive); with UO-31, 70.5 µM (inactive); in the assay with MDA-MB-435 it was > 100 µM (inactive); with HOP-62, 44 µM (inactive); with UACC-62 it was 34 µM (inactive); with U-251, 46.7 µM (inactive). The GI50 is 76.6 µM (inactive) with MDA-MB-231; > 100 µM (inactive) in the assay on SR; > 100 µM (inactive) with SK-MEL-28; > 100 µM (inactive) in the assay on HT-29; 34.2 µM (inactive) in the assay on SF-295; > 100 µM (inactive) in the assay with CCRF-CEM. In addition, the GI50 in the assay on OVCAR-5 was > 100 µM (inactive); in the assay with M14 it was > 100 µM (inactive); in the assay with RXF 393, 32.1 µM (inactive); in the assay on OVCAR-3, > 100 µM (inactive); in the assay with SNB-19 it was 56 µM (inactive); with K562 it was > 100 µM (inactive). Further, the GI50 in the assay with OVCAR-8 is 56 µM (inactive).

As to `Cc1cc(C)nc(NS(=O)(=O)c2ccc(NC(=O)c3cccc4c(NNc5ccc(S(=O)(=O)N=C(N)N)cc5)c5ccccc5nc34)cc2)n1`, the GI50 was > 50 µM (inactive) in the assay with SK-OV-3; 48.1 µM (inactive) in the assay on UO-31; > 50 µM (inactive) in the assay with MDA-MB-435; > 50 µM (inactive) in the assay on HCC 2998; > 50 µM (inactive) with HOP-62; > 50 µM (inactive) with UACC-62. In addition, the GI50 with U-251, in the assay with MDA-MB-231, in the assay on SR, in the assay with HT-29, with SF-295 and with CCRF-CEM was > 50 µM (inactive) each time. The GI50 in the assay on M14, in the assay on RXF 393, in the assay with OVCAR-3, in the assay with SNB-19, in the assay with K562 and in the assay with OVCAR-8 was > 50 µM (inactive) throughout.

Take `CCOP(=O)(OCC)C(Nc1ccc(Cl)cc1)c1ccc(F)cc1` (configuration not stated): the GI50 in the assay on SK-OV-3 is 41.7 µM (inactive); in the assay on UO-31, 20.7 µM (inactive); in the assay with MDA-MB-435, 15.7 µM (inactive); with HCC 2998 it was 22 µM (inactive); in the assay with HOP-62, 19 µM (inactive); in the assay on UACC-62, 4.7 µM (inactive). In addition, the GI50 with U-251 was 18.2 µM (inactive); in the assay with MDA-MB-231, 21.2 µM (inactive); in the assay with SR it was 40.8 µM (inactive); in the assay on SK-MEL-28 it was 18.4 µM (inactive); in the assay with HT-29, 22 µM (inactive); with SF-295, 19.8 µM (inactive). Also, the GI50 is 29.5 µM (inactive) in the assay with CCRF-CEM; 16.6 µM (inactive) in the assay on M14; 21.2 µM (inactive) in the assay with RXF 393; 29.5 µM (inactive) in the assay with OVCAR-3; 26.7 µM (inactive) in the assay with SNB-19; 25.5 µM (inactive) in the assay with K562. In addition, in the assay on OVCAR-8, the GI50 was 28.8 µM (inactive).

Consider `c1ccc(C2=NOC(c3ccccc3)N2C23CC4CC(CC(C4)C2)C3)cc1` (configuration not stated), for which the GI50 in the assay with SK-OV-3, with MDA-MB-435, in the assay on HCC 2998, in the assay with HOP-62, in the assay on UACC-62 and in the assay on U-251 was > 10 µM (inactive) in each case. Besides, the GI50 in the assay with MDA-MB-231 is > 10 µM (inactive); with SR it was 0.785 µM (active); in the assay with SK-MEL-28, > 10 µM (inactive); in the assay on HT-29, > 10 µM (inactive); in the assay on SF-295 it was > 10 µM (inactive); with CCRF-CEM, > 10 µM (inactive). The GI50 in the assay with OVCAR-5, in the assay on M14, in the assay with RXF 393, with OVCAR-3, with SNB-19 and with K562 was > 10 µM (inactive) throughout. In addition, the GI50 with OVCAR-8 was > 10 µM (inactive).

`Cc1ccnc2[nH]c(-c3ccccc3)cc(=O)c12`: the GI50 in the assay with SK-OV-3 was 0.0136 µM (active); in the assay with UO-31, 0.0348 µM (active); in the assay on MDA-MB-435, 0.1 µM (active); with HCC 2998, 0.037 µM (active); with UACC-62, 0.00535 µM (active); with U-251 it was 0.00552 µM (active). The GI50 in the assay on MDA-MB-231 is 0.0912 µM (active); in the assay with SR, 0.00103 µM (active); with SK-MEL-28, 0.01 µM (active); with HT-29 it was 0.00361 µM (active); in the assay on SF-295, 0.00309 µM (active); in the assay with CCRF-CEM it was 0.00589 µM (active). Besides, the GI50 was 0.643 µM (active) in the assay with OVCAR-5; 0.00658 µM (active) in the assay on M14; 0.0192 µM (active) in the assay with RXF 393; 0.00583 µM (active) in the assay on OVCAR-3; 0.0233 µM (active) in the assay with SNB-19; 0.00281 µM (active) in the assay on K562. Also, in the assay on OVCAR-8, the GI50 is 0.027 µM (active).

As to `S=C(c1c[nH]c2ccccc12)N1CCOCC1`, the GI50 in the assay with SK-OV-3 is > 100 µM (inactive); with UO-31 it was 45.8 µM (inactive); in the assay with MDA-MB-435 it was > 100 µM (inactive); in the assay with HOP-62, > 100 µM (inactive); in the assay with UACC-62, > 100 µM (inactive); in the assay with U-251, > 100 µM (inactive). For the same compound, the GI50 in the assay on MDA-MB-231, in the assay with SR, in the assay with SK-MEL-28, with HT-29, in the assay with SF-295 and in the assay on CCRF-CEM was > 100 µM (inactive) each time. Further, the GI50 in the assay on OVCAR-5, in the assay on M14, in the assay on RXF 393, in the assay with OVCAR-3, in the assay with SNB-19 and in the assay with K562 was > 100 µM (inactive) each time. Besides, the GI50 in the assay on OVCAR-8 was > 100 µM (inactive).
